Key:
Test in all cases: relative viability (nuclei count vs DMSO), 5 days (fraction); higher = more cells survive
QS11 + Pictilisib = compound: C1CC2=C(C1)C=C(C=C2)OC3=NC(=C4C(=N3)N(C=N4)CC5=CC=C(C=C5)C6=CC=CC=C6)N[C@@H](CC7=CC=CC=C7)CO [QS11] + CS(=O)(=O)N1CCN(Cc2cc3nc(-c4cccc5[nH]ncc45)nc(N4CCOCC4)c3s2)CC1 [Pictilisib] (partner 1 µM)
Method in brief: (§1)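 Cells from lung cancer lines were seeded into 1536-well plates and, one day later, dosed by pin tool. Treatments were either a single drug or a fixed dose of an anchor drug with five library-drug doses (not always all listed) in √10 steps. After 5 days, nuclei were stained in a one-step fixation (final 0.05% Triton X-100, 1% formaldehyde, 1 ug/ml Hoechst) and counted on 4× images, and relative viability is the treated-to-vehicle nuclei ratio, as the median of duplicate plates.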

AZ628 + Lapatinib = compound: CC1=C(C=C(C=C1)NC(=O)C2=CC(=CC=C2)C(C)(C)C#N)NC3=CC4=C(C=C3)N=CN(C4=O)C [AZ628] + CS(=O)(=O)CCNCc1ccc(-c2ccc3ncnc(Nc4ccc(OCc5cccc(F)c5)c(Cl)c4)c3c2)o1 [Lapatinib] (partner 2 µM)
Method in brief: as §1

[1] = compound: C[As](C)SC[C@H](NC(=O)CC[C@H](N)C(=O)O)C(=O)NCC(=O)O [Darinaparsin] + CC1(C)CCC(c2ccc(Cl)cc2)=C(CN2CCN(c3ccc(C(=O)NS(=O)(=O)c4ccc(N[C@H](CCN5CCOCC5)CSc5ccccc5)c(S(=O)(=O)C(F)(F)F)c4)cc3)CC2)C1 [Navitoclax] (partner 0.5 µM)
Method in brief: as §1

[2] = compound: C[As](C)SC[C@H](NC(=O)CC[C@H](N)C(=O)O)C(=O)NCC(=O)O [Darinaparsin] + C[C@]1(O)C[C@@H](c2nc(-c3ccc4ccc(-c5ccccc5)nc4c3)c3c(N)nccn32)C1 [Linsitinib] (partner 1 µM)
Method in brief: as §1

Row | Cell Line | relative viability (QS11 + Pictilisib; first compound 0.08 µM) | relative viability (QS11 + Pictilisib; first compound 0.253 µM) | relative viability (QS11 + Pictilisib; first compound 0.8 µM) | relative viability (QS11 + Pictilisib; first compound 2.53 µM) | relative viability (QS11 + Pictilisib; first compound 8 µM) | relative viability (AZ628 + Lapatinib; first compound 0.08 µM) | relative viability (AZ628 + Lapatinib; first compound 0.253 µM) | relative viability (AZ628 + Lapatinib; first compound 0.8 µM) | relative viability (AZ628 + Lapatinib; first compound 2.53 µM) | relative viability (AZ628 + Lapatinib; first compound 8 µM) | relative viability ([1]; first compound 0.08 µM) | relative viability ([1]; first compound 0.8 µM) | relative viability ([1]; first compound 2.53 µM) | relative viability ([1]; first compound 8 µM) | relative viability ([2]; first compound 0.08 µM) | relative viability ([2]; first compound 0.8 µM) | relative viability ([2]; first compound 2.53 µM) | relative viability ([2]; first compound 8 µM)
1 | NCI-H2009 | 0.726 | 0.776 | 0.747 | 0.711 | 0.626 | 0.548 | 0.799 | 0.469 | 0.715 | 0.294 | 1.35 | 1.11 | 1.11 | 1.06 | 1.29 | 1.18 | 1.13 | 1.15
2 | COR-L 105 | 0.346 | 0.359 | 0.34 | 0.372 | 0.347 | 0.413 | 0.391 | 0.366 | 0.32 | 0.4 | 0.883 | 0.709 | – | 0.82 | 0.992 | 0.844 | – | 0.978
3 | ABC-1 | 0.657 | 0.6 | 0.651 | 0.764 | 1.06 | 1.04 | 1.09 | 1.08 | 1.16 | 0.985 | – | – | – | – | 0.801 | 0.849 | 0.735 | 1.04
4 | NCI-H1793 | 0.259 | 0.329 | 0.356 | 0.309 | 0.31 | 0.927 | 0.627 | 0.573 | 0.665 | 0.579 | 0.649 | 0.366 | 0.333 | 0.442 | 0.919 | 1.01 | 0.769 | 1.22
5 | NCI-H1792 | – | 0.238 | 0.289 | 0.235 | 0.307 | 0.995 | 0.891 | 0.653 | 0.793 | 0.566 | 1.03 | 0.652 | 0.393 | 0.665 | 0.571 | 0.488 | 0.402 | 0.536
6 | ChaGo-K-1 | – | 0.841 | 0.882 | 1.24 | 1.05 | – | – | – | – | – | 1.19 | 0.905 | 1.05 | 0.956 | – | – | – | –
7 | NCI-H1975 | 0.289 | 0.234 | 0.327 | 0.364 | 0.478 | 0.866 | 0.723 | 0.85 | 0.921 | 0.513 | 1.26 | 1.15 | 1.11 | 1.45 | 1.11 | 1.01 | 0.944 | 1.26
8 | CAL-12T | 0.446 | 0.412 | 0.665 | 0.314 | 0.38 | 0.884 | – | 0.599 | 0.616 | 0.573 | 1.48 | 1.11 | 1.27 | 1.37 | 1.08 | 0.757 | 0.686 | 0.956
9 | NCI-H358 | 0.338 | 0.315 | 0.387 | 0.564 | 0.553 | 0.446 | 0.422 | 0.404 | 0.432 | 0.339 | – | – | – | – | 0.753 | 0.601 | 0.665 | 0.68
10 | NCI-H3122 | 0.566 | 0.693 | 0.467 | 0.71 | 0.722 | 0.975 | 0.733 | 0.733 | 0.684 | 0.435 | 1.11 | 1.08 | 1.06 | 1.11 | 1.1 | 1.08 | 1.08 | 1.03
